The values that follow come from patent US20180318311A1, “TRICYCLIC 2-QUINOLINONES AS ANTIBACTERIALS” (priority 2017, published 2018).

Each structure is given as a SMILES string. In brackets after ≈: the same amount, converted by molar mass.

What all share (format): cell-based
The subject of assay [1] is S. aureus ATCC 49951 (NB01006). The experiment in a line: MIC by broth microdilution, S. aureus NB01006. Particulars: Staphylococcus aureus, ATCC49951, CAMHB, 35° C., 20 hours, read-out: Antibacterial activity (MIC) NB01006. The gist of the method: (§1)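 CLSI broth microdilution in cation-adjusted Mueller-Hinton broth, inoculum about 5×10^5 CFU/mL from overnight MHA cultures. Two-fold compound dilutions in 1% final DMSO; plates incubated 20 h at 35° C in ambient air. MIC (μg/mL) was the lowest concentration preventing visible growth, checked by OD600 and visual inspection.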
A general note: Broth dilution looks for growth in wells or tubes with falling amounts of substance.

Assay [2] has as its system S. aureus NB01006-AVR005, gyrA (S84L), grlA (580F) and grlB (E471K). Description: microbe, parasite or virus in culture. Particulars: Staphylococcus aureus, 20 h, read-out: Antibacterial activity (MIC) NB01006-AVR005. A digest of the protocol:
as §1

The subject of assay [3] is S. aureus NB01080 fluoroquinolone-resistant clinical isolate. Description: MIC by broth microdilution, S. aureus NB01080. Particulars: Staphylococcus aureus, CAMHB, 35° C., 20 hours, read-out: Antibacterial activity (MIC) NB01080. The gist of the method: as §1
Assay [4] relates to E. faecalis ATCC 29212 (NB04001). Description: MIC by broth microdilution, E. faecalis NB04001. Particulars: Enterococcus faecalis, ATCC29212, CAMHB, 35° C., 20 hours, read-out: Antibacterial activity (MIC) NB04001. The gist of the method: as §1
Assay [5] deals with S. pneumoniae ATCC 25922 (NB07001). Description: MIC by broth microdilution, S. pneumoniae NB07001. Particulars: Streptococcus pneumoniae, ATCC25922, 20 h, read-out: Antibacterial activity (MIC) NB07001. The gist of the method:
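MIC in μg/mL taken as the lowest concentration with no visible growth, checked by 600 nm reading after 20 h at 35°C, ambient air. Strains tested per CLSI microdilution in cation-adjusted Mueller-Hinton broth at about 5×10^5 CFU/mL, compounds as two-fold series, 1% DMSO final.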

For assay [6], the system named is E. coli ATCC 25922 (NB27001). Description: MIC by broth microdilution, E. coli NB27001. Conditions: Escherichia coli, ATCC25922, CAMHB, 35° C., 20 hours, read-out: Antibacterial activity (MIC) NB27001. The gist of the method:
as §1

The subject of assay [7] is P. aeruginosa NB52019, wild-type PAO1 strain. Description: MIC by broth microdilution, P. aeruginosa NB52019. Particulars: Pseudomonas aeruginosa, CAMHB, 35° C., 20 hours, read-out: Antibacterial activity (MIC) NB52019. A digest of the protocol: as §1

Turning to `CN[C@@H](C)[C@@H]1CCN(c2c(F)cc3cc(C(=O)O)c(=O)n4c3c2OC[C@@H]4C)C1` [Example 1.36, (S)-9-fluoro-3-methyl-10-((R)-3-((S)-1-(methylamino)ethyl)pyrrolidin-1-yl)-5-oxo-2,3-dihydro-5H-[1,4]oxazino[2,3,4-ij]quinoline-6-carboxylic acid], the MIC in assay [1] was below 1 µg/mL; in assay [2] it was 1 to 32 µg/mL (≈ 2.57 to 82.2 µM); in assay [3], below 1 µg/mL; in assay [4], below 1 µg/mL; in assay [5] it was below 1 µg/mL; in assay [6], 1 to 32 µg/mL (≈ 2.57 to 82.2 µM). Also, the MIC in assay [7] is above 32 µg/mL.
As for `C[C@H]1COc2c(N3CC4CNCC4C3)c(F)cc3cc(C(=O)O)c(=O)n1c23` (stereo partly drawn) [Example 1.37, (3S)-9-fluoro-10-(hexahydropyrrolo[3,4-c]pyrrol-2(1H)-yl)-3-methyl-5-oxo-2,3-dihydro-5H-[1,4]oxazino[2,3,4-ij]quinoline-6-carboxylic acid], the MIC in assay [1], in assay [2], in assay [3], in assay [4], in assay [5] and in assay [6] was above 32 µg/mL throughout. The MIC in assay [7] was above 32 µg/mL.
As to `CO/N=C1\CN(c2c(F)cc3cc(C(=O)O)c(=O)n4c3c2OC[C@@H]4C)CC1CN` (stereo partly drawn) [Example 1.40, (3S)-10-((Z)-3-(aminomethyl)-4-(methoxyimino)pyrrolidin-1-yl)-9-fluoro-3-methyl-5-oxo-2,3-dihydro-5H-[1,4]oxazino[2,3,4-ij]quinoline-6-carboxylic acid], the MIC in assay [1] was 1 to 32 µg/mL (≈ 2.47 to 79.1 µM); in assay [2], 1 to 32 µg/mL (≈ 2.47 to 79.1 µM); in assay [3] it was 1 to 32 µg/mL (≈ 2.47 to 79.1 µM); in assay [4], 1 to 32 µg/mL (≈ 2.47 to 79.1 µM); in assay [5] it was below 1 µg/mL; in assay [6] it was 1 to 32 µg/mL (≈ 2.47 to 79.1 µM). Besides, the MIC in assay [7] was above 32 µg/mL.
On to `CNC[C@@H]1CCN(c2c(F)cc3cc(C(=O)O)c(=O)n4c3c2OC[C@@H]4C)C1` [Example 1.41, (S)-9-fluoro-3-methyl-10-((S)-3-((methylamino)methyl)pyrrolidin-1-yl)-5-oxo-2,3-dihydro-5H-[1,4]oxazino[2,3,4-ij]quinoline-6-carboxylic acid], for which the MIC was below 1 µg/mL in assay [1]; 1 to 32 µg/mL (≈ 2.66 to 85.2 µM) in assay [2]; 1 to 32 µg/mL (≈ 2.66 to 85.2 µM) in assay [3]; 1 to 32 µg/mL (≈ 2.66 to 85.2 µM) in assay [4]; below 1 µg/mL in assay [5]; 1 to 32 µg/mL (≈ 2.66 to 85.2 µM) in assay [6]. For the same compound, the MIC in assay [7] is above 32 µg/mL.
On to `CC(O)C1(F)CCN(c2c(F)cc3cc(C(=O)O)c(=O)n4c3c2OC[C@@H]4C)C1` (stereo partly drawn) [Example 1.44, (3S)-9-fluoro-10-(3-fluoro-3-(1-hydroxyethyl)pyrrolidin-1-yl)-3-methyl-5-oxo-2,3-dihydro-5H-[1,4]oxazino[2,3,4-ij]quinoline-6-carboxylic acid], for which the MIC was below 1 µg/mL in assay [1]; above 32 µg/mL in assay [2]; above 32 µg/mL in assay [3]; 1 to 32 µg/mL (≈ 2.54 to 81.1 µM) in assay [4]; 1 to 32 µg/mL (≈ 2.54 to 81.1 µM) in assay [5]; 1 to 32 µg/mL (≈ 2.54 to 81.1 µM) in assay [6]. Besides, in assay [7], the MIC is above 32 µg/mL.
On to `C[C@H]1COc2c(N3C[C@H]4[C@@H](C3)S(=O)(=O)C[C@@H]4N)c(F)cc3cc(C(=O)O)c(=O)n1c23` [Example 1.51, (S)-10-((3R,3aR,6aS)-3-amino-1,1-dioxidohexahydro-5H-thieno[2,3-c]pyrrol-5-yl)-9-fluoro-3-methyl-5-oxo-2,3-dihydro-5H-[1,4]oxazino[2,3,4-ij]quinoline-6-carboxylic acid], for which the MIC in assay [1], in assay [2], in assay [3], in assay [4], in assay [5] and in assay [6] was above 32 µg/mL in each case. In addition, the MIC in assay [7] is above 32 µg/mL.
Consider `C[C@H]1COc2c(N3CC[C@@H]([C@@H](N)C4CC4)C3)c(F)cc3cc(C(=O)O)c(=O)n1c23` [Example 1.52, (S)-10-((R)-3-((S)-amino(cyclopropyl)methyl)pyrrolidin-1-yl)-9-fluoro-3-methyl-5-oxo-2,3-dihydro-5H-[1,4]oxazino[2,3,4-ij]quinoline-6-carboxylic acid], for which the MIC is below 1 µg/mL in assay [1]; 1 to 32 µg/mL (≈ 2.49 to 79.7 µM) in assay [2]; below 1 µg/mL in assay [3]; below 1 µg/mL in assay [4]; below 1 µg/mL in assay [5]; below 1 µg/mL in assay [6]. The MIC in assay [7] was above 32 µg/mL.
For the compound `C[C@H]1COc2c(N3CC[C@@H]([C@@H](N)C(F)F)C3)c(F)cc3cc(C(=O)O)c(=O)n1c23` [Example 1.53, (S)-10-((R)-3-((R)-1-amino-2,2-difluoroethyl)pyrrolidin-1-yl)-9-fluoro-3-methyl-5-oxo-2,3-dihydro-5H-[1,4]oxazino[2,3,4-ij]quinoline-6-carboxylic acid], the MIC was below 1 µg/mL in assay [1]; 1 to 32 µg/mL (≈ 2.43 to 77.8 µM) in assay [2]; below 1 µg/mL in assay [3]; below 1 µg/mL in assay [4]; below 1 µg/mL in assay [5]; 1 to 32 µg/mL (≈ 2.43 to 77.8 µM) in assay [6]. The MIC in assay [7] is above 32 µg/mL.
Turning to `C[C@H]1COc2c(N3CCCN(CC(F)F)CC3)c(F)cc3cc(C(=O)O)c(=O)n1c23` [Example 1.54, (S)-10-(4-(2,2-difluoroethyl)-1,4-diazepan-1-yl)-9-fluoro-3-methyl-5-oxo-2,3-dihydro-5H-[1,4]oxazino[2,3,4-ij]quinoline-6-carboxylic acid], the MIC in assay [1] was 1 to 32 µg/mL (≈ 2.35 to 75.2 µM); in assay [2], above 32 µg/mL; in assay [3], above 32 µg/mL; in assay [4], above 32 µg/mL; in assay [5], above 32 µg/mL; in assay [6] it was above 32 µg/mL. For the same compound, the MIC in assay [7] was above 32 µg/mL.
Regarding `C[C@H]1COc2c(N3CCNC4(CC3)CC4)c(F)cc3cc(C(=O)O)c(=O)n1c23` [Example 1.55, (S)-9-fluoro-3-methyl-5-oxo-10-(4,7-diazaspiro[2.6]nonan-7-yl)-2,3-dihydro-5H-[1,4]oxazino[2,3,4-ij]quinoline-6-carboxylic acid], the MIC is 1 to 32 µg/mL (≈ 2.58 to 82.6 µM) in assay [1]; above 32 µg/mL in assay [2]; 1 to 32 µg/mL (≈ 2.58 to 82.6 µM) in assay [3]; 1 to 32 µg/mL (≈ 2.58 to 82.6 µM) in assay [4]; 1 to 32 µg/mL (≈ 2.58 to 82.6 µM) in assay [5]; 1 to 32 µg/mL (≈ 2.58 to 82.6 µM) in assay [6]. In assay [7], the MIC was above 32 µg/mL.
Take `C[C@H]1COc2c(N3CC[C@@H]([C@@H](N)CF)C3)c(F)cc3cc(C(=O)O)c(=O)n1c23` [Example 1.56, (S)-10-((R)-3-((R)-1-amino-2-fluoroethyl)pyrrolidin-1-yl)-9-fluoro-3-methyl-5-oxo-2,3-dihydro-5H-[1,4]oxazino[2,3,4-ij]quinoline-6-carboxylic acid]: the MIC is below 1 µg/mL in assay [1]; 1 to 32 µg/mL (≈ 2.54 to 81.3 µM) in assay [2]; below 1 µg/mL in assay [3]; below 1 µg/mL in assay [4]; below 1 µg/mL in assay [5]; below 1 µg/mL in assay [6]. In assay [7], the MIC fell in the range of 1 to 32 µg/mL (≈ 2.54 to 81.3 µM).
For `C[C@H]1COc2c(N3CCC4(CCCN4C)CC3)c(F)cc3cc(C(=O)O)c(=O)n1c23` [Example 1.57, (S)-9-fluoro-3-methyl-10-(1-methyl-1,8-diazaspiro[4.5]decan-8-yl)-5-oxo-2,3-dihydro-5H-[1,4]oxazino[2,3,4-ij]quinoline-6-carboxylic acid], the MIC was above 32 µg/mL in assay [1]; above 32 µg/mL in assay [2]; above 32 µg/mL in assay [3]; above 32 µg/mL in assay [4]; above 32 µg/mL in assay [5]; 1 to 32 µg/mL (≈ 2.41 to 77 µM) in assay [6]. For the same compound, in assay [7], the MIC was above 32 µg/mL.
Consider `C[C@@H]1CN(c2c(F)cc3cc(C(=O)O)c(=O)n4c3c2OC[C@@H]4C)C[C@@]1(C)CN` [Example 1.58, (S)-10-((3R,4S)-3-(aminomethyl)-3,4-dimethylpyrrolidin-1-yl)-9-fluoro-3-methyl-5-oxo-2,3-dihydro-5H-[1,4]oxazino[2,3,4-ij]quinoline-6-carboxylic acid], for which the MIC in assay [1] was below 1 µg/mL; in assay [2], 1 to 32 µg/mL (≈ 2.57 to 82.2 µM); in assay [3] it was 1 to 32 µg/mL (≈ 2.57 to 82.2 µM); in assay [4] it was 1 to 32 µg/mL (≈ 2.57 to 82.2 µM); in assay [5] it was 1 to 32 µg/mL (≈ 2.57 to 82.2 µM); in assay [6], 1 to 32 µg/mL (≈ 2.57 to 82.2 µM). Moreover, the MIC in assay [7] is above 32 µg/mL.
With `C[C@H]1COc2c(N3CC4=C(CNC4)C3)c(F)cc3cc(C(=O)O)c(=O)n1c23` [Example 1.59, (S)-9-fluoro-3-methyl-5-oxo-10-(3,4,5,6-tetrahydropyrrolo[3,4-c]pyrrol-2(1H)-yl)-2,3-dihydro-5H-[1,4]oxazino[2,3,4-ij]quinoline-6-carboxylic acid], the MIC was 1 to 32 µg/mL (≈ 2.69 to 86.2 µM) in assay [1]; above 32 µg/mL in assay [2]; 1 to 32 µg/mL (≈ 2.69 to 86.2 µM) in assay [3]; above 32 µg/mL in assay [4]; 1 to 32 µg/mL (≈ 2.69 to 86.2 µM) in assay [5]; 1 to 32 µg/mL (≈ 2.69 to 86.2 µM) in assay [6]. Moreover, in assay [7], the MIC was above 32 µg/mL.
